Test results from US3950525A, “Relaxation of smooth muscle in a mammal” (Pfizer Inc., priority 1975, dated 1976).
Counter-ions that a name gives are not always drawn. Like-named read-outs stand apart in the source and are kept apart here.

How the values were obtained:
[1] = tested on: histamine aerosol induced bronchoconstriction; assay: Bronchodilator Activity (protection of conscious guinea pigs against histamine aerosol); assay type: in vivo; settings: for inhibition in vivo at 60 mg/kg: Cavia porcellus, 1 h, read-out: % Protection
Method: Subsequent to this administration, each animal is challenged with histamine aerosol. […] Immediately after the container is subjected to the histamine spray the animal is placed within it. At the end of one minute of exposure, the respiratory status, which is a reflection of bronchoconstriction, is evaluated. Evaluation levels are designated and scored as normal breathing (0), slight deepened breathing (1), labored breathing (2), severely labored breathing and […] (3) and unconsciousness (4). Each group of animals contains 8 to 10 individual and a control group containing the same approximate number is used. […] The dose, which is given orally, is 60 mg./kg. and the animals are challenged with histamine 60 minutes later.

[2] = tested on: collagen induced platelet aggregation; assay: In Vitro Inhibition of Platelet Aggregation (collagen induced, rabbit platelet-rich plasma); assay type: cell-based; settings: Oryctolagus cuniculus, 10 min; for inhibition at 60 µM: 6 × 10^^-5 mol./l.; for inhibition at 6 µM: 6 × 10^^-6 mol./l.; for inhibition at 600 µM: 6 × 10^^-4 mol./l.
Method: The ability of the compounds of the present invention to inhibit platelet aggregation in vitro is measured according to the method of Born, et al., J. Physiol., 168, 178 (1963) and comprises the following procedure: Anesthetized male rabbits are bled from a carotid artery into plastic centrifuge tubes containing 0.1 volume 3% sodium citrate. Platelet-rich plasma is separated by centrifugation at 100 G for 10 minutes at 20° C. […] After 10 minutes of incubation with the platelet-rich plasma at room temperature, collagen, a protein known to cause platelet aggregation, is added (0.27 ml. collagen/4 ml. plasma) and changes in the optical density are followed with a Spectronic 20 colorimeter attached to a Houston Instrument TY Recorder. Platelet aggregation is indicated by a decrease in optical density. The relative potency of the compounds of the present invention are thus rated on their ability to inhibit (percent) collagen induced platelet aggregation.

[3] = tested on: collagen induced platelet aggregation; assay: In Vivo Inhibition of Platelet Aggregation (collagen induced aggregation in plasma of dosed dogs); set-up: species or system mongrel dogs; settings: for Inhibition to Collagen, High: high collagen (1:20 dilution); for Inhibition to Collagen, Low: low collagen (1:40-50 dilution)
Method: The capacity of the compounds of the present invention to inhibit platelet aggregation in a modified in vivo test is measured by the following procedure: Unanesthetized fasted adult mongrel dogs of either sex are dosed orally (P.O.) or intravenously (I.V.) with the particular test compound. Blood samples are taken at hourly intervals and placed in plastic centrifuge tubes containing 0.1 volume 3% sodium citrate. Platelet-rich plasma is separated by centrifugation at 100 G for 10 minutes at 20° C. and treated with a collagen suspension in saline. The effect of two different levels of collagen concentration are examined; the first is a 1:20 dilution, i.e. 1 ml. of collagen suspension per 20 ml. of platelet-rich plasma (high dose), and the second, a 1:40-50 dilution (low dose). Changes in optical density are then followed with a Spectronic 20 colorimeter attached to a Houston Instrument TY Recorder. Platelet aggregation is indicated by a decrease in optical density. […] Measurements are carried out on the hourly samples, allowing for the determination of a duration of the initial effect.

[4] = 60 mg./kg. oral, histamine challenge 60 minutes later

SMILES: CCc1c(-c2cccc(NC(C)=O)c2)ncnc1N(CC)CC
- inhibition in vivo at 60 mg/kg [1, 4]: 35%

SMILES: CCN(CC)c1ncnc(-c2cccc(NC(C)=O)c2)c1C
- inhibition in vivo at 60 mg/kg [1, 4]: 43%

SMILES: CCCc1c(-c2cccc(NC(C)=O)c2)ncnc1N(CC)CC
- inhibition in vivo at 60 mg/kg ([1]; po): 29%

SMILES: CCc1c(-c2cccc(NC(C)=O)c2)ncnc1N(C)C
- inhibition in vivo at 60 mg/kg [1, 4]: 10%

SMILES: CCCN(CCC)c1ncnc(-c2cccc(NC(C)=O)c2)c1C
- inhibition in vivo at 60 mg/kg [1, 4]: 17%

SMILES: CCN(CC)c1cc(-c2cccc(NC(=O)C(C)C)c2)ncn1 [4-diethylamino-6-(m-isobutrylaminophenyl)pyrimidine]
- inhibition in vivo at 60 mg/kg ([1]; po): 22%

SMILES: CCN(CC)c1cc(-c2ccco2)ncn1 [Ar=2-furyl; R1=C2H5; R2=C2H5; R3=H, 4-Diethylamino-6-(2-furyl)pyrimidine hydrochloride]
- inhibition in vivo at 60 mg/kg [1, 4]: 15%

SMILES: CCc1c(-c2ccc3ccccc3c2)ncnc1N(CC)CC [Ar=2-naphthyl; R1=C2H5; R2=C2H5; R3=C2H5, 4-Diethylamino-5-ethyl-6-(2-naphthyl)pyrimidine hydrochloride]
- inhibition in vivo at 60 mg/kg ([1]; po): 47%

SMILES: CCN(CC)c1cc(-c2ccc(NC(C)=O)cc2)ncn1 [Ar=4-CH3CONHC6H4; R1=C2H5; R2=C2H5; R3=H, 4-diethylamino-6-(p-acetylaminophenyl)pyrimidine]
- inhibition in vivo at 60 mg/kg ([1]; po): 56%

SMILES: CCN(CC)c1cc(-c2ccc(OC)cc2)ncn1 [Ar=4-CH3OC6H4; R1=C2H5; R2=C2H5; R3=H, 4-diethylamino-6-(p-methoxyphenyl)pyrimidine]
- inhibition at 60 µM [2]: 86%
- inhibition at 6 µM [2]: 42%
- Inhibition to Collagen, High ([3]; 10 mg./kg. I.V.): None (none (0-15%))
- Inhibition to Collagen, Low ([3]; 10 mg./kg. I.V.): None (none (0-15%))
- Inhibition to Collagen, High ([3]; 40 mg./kg. P.O.): Partial (partial (15-95%))
- Duration ([3]; 40 mg./kg. P.O., line with high collagen result): 1 h
- Duration ([3]; 40 mg./kg. P.O., line with low collagen result): 4 h
- Inhibition to Collagen, Low ([3]; 40 mg./kg. P.O.): Complete (complete (95-100%))

SMILES: CCc1c(-c2ccccc2)ncnc1N(CC)CC [Ar=C6H5; R1=C2H5; R2=C2H5; R3=C2H5, 4-Diethylamino-5-ethyl-6-phenylpyrimidine Hydrochloride]
- inhibition at 6 µM [2]: 48%

SMILES: CCN(CC)c1ncnc(-c2ccccc2)c1C [Ar=C6H5; R1=C2H5; R2=C2H5; R3=CH3, 4-diethylamino-5-methyl-6-phenylpyrimidine]
- inhibition at 6 µM [2]: 80%

SMILES: CCN(CC)c1ncnc(-c2ccccc2)c1C(C)C [Ar=C6H5; R1=C2H5; R2=C2H5; R3=i-C3H7]
- inhibition at 6 µM [2]: 63%

SMILES: CCCc1c(-c2ccccc2)ncnc1N(CC)CC [Ar=C6H5; R1=C2H5; R2=C2H5; R3=n-C3H7]
- inhibition at 6 µM [2]: 55%

SMILES: CCNc1cc(-c2ccccc2)ncn1 [Ar=C6H5; R1=C2H5; R2=H; R3=H, 4-ethylamino-6-phenylpyrimidine]
- inhibition at 600 µM [2]: 99%
- inhibition at 60 µM [2]: 91%
- inhibition at 6 µM [2]: 99%

SMILES: CCN(CC(F)(F)F)c1cc(-c2ccccc2)ncn1 [Ar=C6H5; R1=CF3CH2; R2=C2H5; R3=H, 4-[Ethyl(2,2,2-trifluoroethyl)amino]-6-phenylpyrimidine hydrochloride]
- inhibition at 600 µM [2]: 65%
- inhibition at 60 µM [2]: 39%
- inhibition at 6 µM [2]: 34%

SMILES: Cl.FC(F)(F)CNc1cc(-c2ccccc2)ncn1 [Ar=C6H5; R1=CF3CH2; R2=H; R3=H, 4-(2,2,2-Trifluoroethylamino)-6-phenylpyrimidine hydrochloride]
- inhibition at 60 µM [2]: 83%
- inhibition at 6 µM [2]: 32%
- Duration ([3]; 10 mg./kg. I.V.): 3 h
- Inhibition to Collagen, High ([3]; 10 mg./kg. I.V.): Complete (complete (95-100%))
- Duration ([3]; 25 mg./kg. P.O.): 3 h
- Inhibition to Collagen, High ([3]; 25 mg./kg. P.O.): Partial (partial (15-95%))
- Duration ([3]; 35 mg./kg. P.O.): 4 h
- Inhibition to Collagen, High ([3]; 35 mg./kg. P.O.): Complete (complete (95-100%))
- Inhibition to Collagen, Low ([3]; 35 mg./kg. P.O.): Complete (complete (95-100%))

SMILES: CCc1c(-c2ccccc2)ncnc1N(C)C [Ar=C6H5; R1=CH3; R2=CH3; R3=C2H5]
- inhibition at 6 µM [2]: 50%

SMILES: CN(C)c1cc(-c2ccccc2)ncn1 [Ar=C6H5; R1=CH3; R2=CH3; R3=H]
- inhibition at 600 µM [2]: 99%
- inhibition at 60 µM [2]: 55%

SMILES: CCCc1c(-c2ccccc2)ncnc1N(C)C [Ar=C6H5; R1=CH3; R2=CH3; R3=n-C3H7]
- inhibition at 6 µM [2]: 40%

SMILES: CNc1cc(-c2ccccc2)ncn1 [Ar=C6H5; R1=CH3; R2=H; R3=H]
- inhibition at 600 µM [2]: 99%
- inhibition at 60 µM [2]: 66%

SMILES: Nc1cc(-c2ccccc2)ncn1 [Ar=C6H5; R1=H; R2=H; R3=H, 4-amino-6-phenylpyrimidine]
- inhibition at 600 µM [2]: 75%
- inhibition at 60 µM [2]: 65%

SMILES: CCN(CCO)c1cc(-c2ccccc2)ncn1.Cl [Ar=C6H5; R1=HO(CH2)2; R2=C2H5; R3=H, 4-[Ethyl(2-hydroxyethyl)amino]-6-phenylpyrimidine hydrochloride]
- inhibition at 600 µM [2]: 99%
- inhibition at 60 µM [2]: 97%
- inhibition at 6 µM [2]: 35%
- Duration ([3]; 10 mg./kg. I.V.): 3 h
- Inhibition to Collagen, High ([3]; 10 mg./kg. I.V.): Complete (complete (95-100%))
- Inhibition to Collagen, Low ([3]; 10 mg./kg. I.V.): Complete (complete (95-100%))
- Duration ([3]; 25 mg./kg. P.O.): 2 h
- Inhibition to Collagen, High ([3]; 25 mg./kg. P.O.): Complete (complete (95-100%))
- Inhibition to Collagen, Low ([3]; 25 mg./kg. P.O.): Complete (complete (95-100%))

SMILES: CN(CCO)c1cc(-c2ccccc2)ncn1 [Ar=C6H5; R1=HO(CH2)2; R2=CH3; R3=H, 4-[Methyl(2-hydroxyethyl)amino]-6-phenylpyrimidine hydrochloride]
- inhibition at 600 µM [2]: 99%
- inhibition at 60 µM [2]: 99%
- inhibition at 6 µM [2]: 28%

SMILES: OCCN(CCO)c1cc(-c2ccccc2)ncn1 [Ar=C6H5; R1=HO(CH2)2; R2=HO(CH2)2; R3=H, 4-[Bis(2-hydroxyethyl)amino]-6-phenylpyrimidine hydrochloride]
- inhibition at 600 µM [2]: 84%
- inhibition at 60 µM [2]: 27%

SMILES: CC(C)Nc1cc(-c2ccccc2)ncn1 [Ar=C6H5; R1=i-C3H7; R2=H; R3=H]
- inhibition at 60 µM [2]: 88%
- inhibition at 6 µM [2]: 29%

SMILES: CC(C)CNc1cc(-c2ccccc2)ncn1 [Ar=C6H5; R1=i-C4H9; R2=H; R3=H]
- inhibition at 60 µM [2]: 82%
- inhibition at 6 µM [2]: 17%

SMILES: CC(C)CN(CC(C)C)c1cc(-c2ccccc2)ncn1 [Ar=C6H5; R1=i-C4H9; R2=i-C4H9; R3=H]
- inhibition at 600 µM [2]: 35%
- inhibition at 60 µM [2]: 24%
- inhibition at 6 µM [2]: 10%

SMILES: CCCN(CC)c1cc(-c2ccccc2)ncn1 [Ar=C6H5; R1=n-C3H7; R2=C2H5; R3=H, 4-(ethyl-n-propylamino)-6-phenylpyrimidine]
- inhibition at 600 µM [2]: 99%
- inhibition at 60 µM [2]: 86%
- inhibition at 6 µM [2]: 79%

SMILES: CCCN(C)c1cc(-c2ccccc2)ncn1 [Ar=C6H5; R1=n-C3H7; R2=CH3; R3=H]
- inhibition at 60 µM [2]: 47%
- inhibition at 6 µM [2]: 39%

SMILES: CCCN(CCC)c1ncnc(-c2ccccc2)c1CC [Ar=C6H5; R1=n-C3H7; R2=n-C3H7; R3=C2H5]
- inhibition at 6 µM [2]: 5%

SMILES: CCCN(CCC)c1ncnc(-c2ccccc2)c1C [Ar=C6H5; R1=n-C3H7; R2=n-C3H7; R3=CH3]
- inhibition at 6 µM [2]: 11%

SMILES: CCCN(CCC)c1cc(-c2ccccc2)ncn1 [Ar=C6H5; R1=n-C3H7; R2=n-C3H7; R3=H]
- inhibition at 600 µM [2]: 83%
- inhibition at 60 µM [2]: 49%
- inhibition at 6 µM [2]: 41%

SMILES: CCCCNc1cc(-c2ccccc2)ncn1 [Ar=C6H5; R1=n-C4H9; R2=H; R3=H]
- inhibition at 60 µM [2]: 42%
- inhibition at 6 µM [2]: 30%

SMILES: CCCCN(CCCC)c1cc(-c2ccccc2)ncn1 [Ar=C6H5; R1=n-C4H9; R2=n-C4H9; R3=H]
- inhibition at 60 µM [2]: 56%
- inhibition at 6 µM [2]: 35%

SMILES: CCc1c(O)ncnc1-c1ccccc1 [R3=C2H5, 4-hydroxy-5-ethyl-6-phenylpyrimidine]
- inhibition in vivo at 60 mg/kg [1, 4]: 62%
- activity as a bronchodilator (in words) ([1]; guinea pig, in vivo): unexpected, outstanding activity as a bronchodilator

SMILES: Cc1c(O)ncnc1-c1ccccc1 [R3=CH3]
- inhibition in vivo at 60 mg/kg [1, 4]: 22%

SMILES: Oc1cc(-c2ccccc2)ncn1 [R3=H, 4-Hydroxy-6-phenylpyrimidine]
- inhibition in vivo at 60 mg/kg ([1]; po): 12%

SMILES: CC(C)c1c(O)ncnc1-c1ccccc1 [R3=i-C3H7]
- inhibition in vivo at 60 mg/kg ([1]; po): 16%

SMILES: CCCc1c(O)ncnc1-c1ccccc1 [R3=n-C3H7]
- inhibition in vivo at 60 mg/kg [1, 4]: 25%
